Measured values: patent US20140017223A1, “Pharmaceutical Compositions Comprising A Pancreatic Enzyme Preparation With Viral Infectivity Reduced Below A Significant Level And Methods Of Preparing And Using The Same” (Aptalis Pharma Canada Inc., priority 2010, published 2014)

Columns and labels:
PPV = assay: Inactivation of PPV by BPL (30 min, 25° C.) measured from frozen and lyophilized samples (Example 10); type: cell-based, porcine parvovirus (PPV)
Procedure: 4.5 g pancrelipase (PEP) powder was dissolved in 44 ml ice cold 100 mM Tris (pH=8.3) by frequently mixing a 50-ml plastic tube that was kept on ice most of the time except when shaking. The dissolved sample was spiked with 1 ml (2×0.5 ml) PPV stock (prepared at the Institut National de la Recherche Scientifique, Québec, Canada using standard protocols (Arella et al., Physicichemical properties, production, and purification of parvoviruses. 1990, In Tijssen, P. (ed.), CRC handbook of parvoviruses. Boca Raton, Fla.: CRC Press, 11-30)) 10^7 FFID50/ml; see Example 8 and Table 8) and was mixed for another 10 minutes.
Three aliquots of the dissolved pancrelipase were transferred into tubes (A-C) and kept on ice while (A) no BPL—the control), (B) (0.4 vol % BPL), or (C) (0.8 vol % BPL) was added to them. After a brief mixing by a vortex machine, the tubes were incubated for 30 minutes at 25° C. At the end of the incubation, the tubes were transferred on to ice and immediately four aliquots were transferred from each experimental condition into new tubes (a-d). These tubes were placed into the mixture of acetone/dry ice for fast freezing. Later, the samples were stored at −80° C.
The experiment above was repeated two more times (altogether: experiments 1-3).
The frozen samples were lyophilized at −45° C. for two days, and the pancrelipase powders were kept at 4-10° C. Samples a-b from all the experiments were dissolved in water. Infectivity measurements were done with diluted samples using the 400 times diluted samples as the lowest dilution step to determine the FFID50. To easily compare the results for the different experiments, all of the obtained infectivity data were converted to specific infectivity (FFID50/gram PEP). See Example 10 and Table 10.
Inactivation results for PEP samples containing PPV inactivated by BPL at 25° C. for 30 min which was subsequently inactivated by freezing followed by lyophilization are presented in Table 10.

Endogenous PPV = assay: Inactivation of endogenous PPV of PEP by BPL, chloroform/PEG extraction method (Example 4); type: cell-based, porcine parvovirus (PPV); conditions: for Detected PPV Titer: 0*=below detection limit of 63 FFID50/g PEP
Procedure: Pancrelipase powders from 2 different lots were each dissolved in 100 mM Tris, pH=8.3, at a concentration of 100 mg/ml. Two ml non-purified PPV viral stock (prepared using standard protocols (Arella et al., Physicichemical properties, production, and purification of parvoviruses. 1990, In Tijssen, P. (ed.), CRC handbook of parvoviruses. Boca Raton, Fla.: CRC Press, 11-30)) were added to 38 ml of the pancrelipase solution. The virus was mixed with the PEP using slow shaking at room temperature for one day. Aliquots were taken from the PPV-spiked pancrelipase stocks and each was incubated with different concentrations of BPL (available from Sigma-Aldrich, St. Louis, Mo.) (except the control) for 48 hours at room temperature (20° C.). The level of viral inactivation was measured by the titration of PPV infectivity using serial dilutions of 1,000 times or more since the titer of spiked virus was high. Determination of the FFID50 was performed using the fluorescence assay as described in the PPV FFID-infectivity assay of U.S. Patent Publication No. 2009/0226414.
The experiment described in Example 1 was repeated except no additional PPV was added. Like Example 3, the infectivity assay was performed after PEG/chloroform purification.

lipase = assay: Lipase activity of pancrelipase after BPL treatment, freezing and lyophilization (USP 31 method); type: biochemical; conditions: for Loss of Lipase Activity: pancrelipase, freezing, lyophilization, precision 5-10%
Procedure: Enzymatic activity for the enzymes of a PEP (e.g., proteases, lipases, and amylases) can be determined, for example, by using the United States Pharmacopeia (USP) monographed methods (The United States Pharmacopeia and the National Formulary (USP 31/NF 26). 2008. Rockville (MD): United States Pharmacopeial Convention, Inc.).
The samples c-d from all the experiments were tested for lipase, protease, and amylase enzymatic activity using USP 31 monographed methods. See Example 11 and Table 11.
Table 11 presents the lipase, protease, and amylase activity for aliquots of the pancrelipase after BPL treatment for 30 min at 25° C. followed by freezing and lyophilization (same treatment as for samples in Example 10).

[1] = PEP # 1, endogenous PPV 3.20 × 10^3, 0.10% (v/v) BPL
[2] = PEP # 1, endogenous PPV 3.20 × 10^3, 0.25% (v/v) BPL
[3] = PEP # 2, endogenous PPV 0.10 × 10^3, 0.04% (v/v) BPL
[4] = PEP # 2, endogenous PPV 0.10 × 10^3, 0.10% (v/v) BPL
[5] = PEP # 2, endogenous PPV 0.10 × 10^3, 0.25% (v/v) BPL
[6] = PEP # 3, endogenous PPV 6.40 × 10^3, 0.10% (v/v) BPL
[7] = PEP # 3, endogenous PPV 6.40 × 10^3, 0.25% (v/v) BPL
[8] = PEP # 4, endogenous PPV 0.20 × 10^3, 0.04% (v/v) BPL
[9] = PEP # 4, endogenous PPV 0.20 × 10^3, 0.10% (v/v) BPL
[10] = PEP # 4, endogenous PPV 0.20 × 10^3, 0.25% (v/v) BPL

## O=C1CCO1 [BPL, Beta-propiolactone]
PPV; 0.4% BPL
  Reduction of PPV titer: 0.27 × 10^3 FFID50/g
PPV; 0.8% BPL
  Reduction of PPV titer: 1.55 × 10^6 FFID50/g
PPV; 0.8% BPL, 0* means under detection limit
  Average Results (per sample a/b): < 0* FFID50/g
PPV; 0.8% BPL, experiments C1-C3, 0* means under detection limit
  Average Results (per experiment): < 0* FFID50/g
PPV; 0.8% BPL, samples C1a-C3b, 0* means under detection limit
  PPV infectivity (single determinations): < 0* FFID50/g
Endogenous PPV; PEP # 1, endogenous PPV 3.20 × 10^3, 0.04% (v/v) BPL
  Detected PPV Titer: 0.50 × 10^2 FFID50/g
Endogenous PPV; [1]
  PPV Titer reduction: 10^3 FFID50/g
  Detected PPV Titer: < 0* FFID50/g
Endogenous PPV; [2]
  PPV Titer reduction: 10^3 FFID50/g
  Detected PPV Titer: < 0* FFID50/g
Endogenous PPV; [3]
  PPV Titer reduction: 10^3 FFID50/g
  Detected PPV Titer: < 0* FFID50/g
Endogenous PPV; [4]
  PPV Titer reduction: 10^3 FFID50/g
  Detected PPV Titer: < 0* FFID50/g
Endogenous PPV; [5]
  PPV Titer reduction: 10^3 FFID50/g
  Detected PPV Titer: < 0* FFID50/g
Endogenous PPV; PEP # 3, endogenous PPV 6.40 × 10^3, 0.04% (v/v) BPL
  Detected PPV Titer: 4.00 × 10^2 FFID50/g
Endogenous PPV; [6]
  PPV Titer reduction: 10^3 FFID50/g
  Detected PPV Titer: 0.07 × 10^2 FFID50/g
Endogenous PPV; [7]
  PPV Titer reduction: 10^3 FFID50/g
  Detected PPV Titer: < 0* FFID50/g
Endogenous PPV; [8]
  PPV Titer reduction: 10^3 FFID50/g
  Detected PPV Titer: < 0* FFID50/g
Endogenous PPV; [9]
  PPV Titer reduction: 10^3 FFID50/g
  Detected PPV Titer: < 0* FFID50/g
Endogenous PPV; [10]
  PPV Titer reduction: 10^3 FFID50/g
  Detected PPV Titer: < 0* FFID50/g
lipase; lyophilized samples treated with 0.4% BPL and 0.8% BPL
  Lipase activity maintained: maintained the majority
lipase; 0.4% BPL 30 min 25° C.
  Loss of Lipase Activity: 19.79%
lipase; 0.8% BPL 30 min 25° C.
  Loss of Lipase Activity: 26.40%
